Results: PMC10111420, “Optimization of Host Cell-Compatible, Antimicrobial Peptides Effective against Biofilms and Clinical Isolates of Drug-Resistant Bacteria” (ACS Infectious Diseases, 2023)
Converted amounts (≈) assume the structure as drawn. Where a SMILES comes first, the peptide text is derived from it. [ ]: non-standard residue; d: D form.

Assays:
[1] = Post-surgery mouse monitoring (weight, wound condition); conditions: monitored every day for 14 days, four mice per group, P. aeruginosa and MRSA infected mice, versus vehicle control
Method: In this model, a deep surgical punch wound, created on the dorsal surface of healthy adult CD1 mice is stabilized with a silicone ring to prevent healing by contraction, and then, covered with a Tegaderm dressing. The wound bed, with a volume of ∼20 μL, is immediately infected with 1 × 10^5 cfu of luciferase-producing P. aeruginosa or MRSA.
Female CD1 mice at 8–12 weeks of age were anesthetized via intraperitoneal injection of ketamine and xylazine at doses of 90 and 10 mg/kg, respectively. Their dorsal surface was depilated using an electric razor and scrubbed with a chlorhexidine solution. A full-thickness biopsy wound was generated using a 5 mm biopsy punch (Integra). To function as a splint for the wound, a 0.5 mm thick silicon (Invitrogen) ring with an outer diameter of 10 mm and a hole with a 5 mm diameter was placed over the wound and held to the skin with a surgical adhesive. The entire silicon ring was then covered with Tegaderm (3 M), and further adhered using 4-0 braided silk interrupted sutures (Ethicon). Mice were given 0.05 mg/kg buprenorphine immediately following surgery as well as daily for the next 2 days to alleviate pain from the procedure. […] Weight, activity, posture, coat condition, and wound condition were monitored each day throughout the duration of the experiment to ensure the well-being of each mouse. […]

[2] = test system: Pseudomonas aeruginosa clinical isolates; assay: microbe, parasite or virus in culture; conditions: clinical isolates
Outline: (§1)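 Antibiotics were serially diluted 2:3 in TSB and pre-incubated 30 min with or without type O+ human RBCs added as 2.5 × 10^9 cells/mL aliquots. Wells were […] at 5 × 10^5 CFU/mL and grown overnight at 37 °C, with OD600 below 0.1 taken as sterilized. RBC wells were subcultured overnight in fresh TSB; the largest sterilizing dilution was recorded, with 4–8 independent repeats.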

[3] = test system: MRSA SAP400, a USA400 strain; assay: microbe, parasite or virus in culture; conditions: USA400
Outline: as §1

K. pneumoniae isolates = assay: Susceptibility of all K. pneumoniae isolates (both sets); type: cell-based, Klebsiella pneumoniae; conditions: both sets of clinical isolates
Description: In parallel experiments, resistance of P. aeruginosa to multiple conventional antibiotics grew rapidly over just a few passages.[5] […] The mechanism of resistance avoidance is currently unknown. Further studies will be required to understand the mechanistic basis for the resistance avoidance of D-CONGA-Q7 against K. pneumoniae isolates. These insights will be particularly important for the advancement of resistance-avoiding AMPs into the clinic.

[4] = test system: K. pneumoniae clinical isolates; assay: microbe, parasite or virus in culture; conditions: clinical isolates
[5] = test system: K. pneumoniae clinical isolates
Method: (§2) Subcultures, prepared by inoculating 25 mL of fresh tryptic soy broth (TSB) with 200 μL of an overnight culture, were grown to log phase (OD600 = 0.3–0.6), after which cell counts were determined by measuring the OD600 (1.0 = 5 × 10^8 CFU/mL for E. coli, 4 × 10^8 CFU/mL for K. pneumoniae, 4 × 10^8 CFU/mL for P. aeruginosa, 1.5 × 10^8 CFU/mL for S. aureus). Bacterial cells were diluted to appropriate concentrations in TSB. We used the following clinical bacterial isolates of Klebsiella pneumoniae in this study: Strains KP6, KP46, NDM-1, KP396, and KP398 have been previously described.[43] ST58 strains C2, C3, and I2 are also described.[41] […] MRSA, […] S. aureus strain, is SAP400, a USA400 strain of community-acquired MRSA. […] The second independent set of K. pneumoniae isolates are previously described.[20],[21]
(§3) The antibiotics were serially diluted by a factor of 2:3 horizontally across 96-well plates from Corning, 25 μL per well. One column was reserved for controls. For the assays performed in the presence of RBC, type O+ human RBCs at 0 or 2.5 × 10^9 cells/mL were added in 50 μL aliquots to all wells. Following a 30-min incubation, 50 μL of TSB, inoculated with 5 × 10^5 CFU/mL, was added to all wells, and plates were incubated overnight at 37 °C. Following overnight incubation at 37 °C, the OD600 was measured (values of less than 0.1 were considered sterilized). To assess bacterial growth in the assays with RBC, the OD600 was measured after a second-day inoculation with 10 μL of solution from the original plate added to 100 μL of sterile TSB followed by overnight incubation.
Experiments were repeated four to eight times independently, with pairs of replicate measurements on each 96-well plate. After overnight growth, optical densities were measured at 660 nm and the sterilized wells were identified by having O.D. < 0.08. Nonsterilized wells were nearly opaque with OD > 0.6. For each measurement, we recorded the largest dilution that sterilized the bacteria. Statistics are done on dilution numbers, rather than calculated concentrations, because only the former have normal distributions.

[6] = test system: 14 clinical isolates of resistant bacterial strains; assay: Broth dilution, summary over the 14 clinical isolates of the first set; type: cell-based; conditions: 14 clinical isolates of the first set
Method: In Figure 4B, we plot the fraction of isolates sterilized as functions of antibiotic concentration.
as §2, §3

luminescent MRSA = assay: Murine wound infection model, MRSA; type: in vivo, CD1 mice; conditions: 75 μg in 20 μL water with 0.025% acetic acid, topical, every 8 h for the first 5 days; luminescence (IVIS), Days 1–3; four animals per group
Method: (§4) Wound luminescence values were recorded once per day for each animal during the experiment using an IVIS whole animal imaging system. Total luminescence values, integrated over the entire wound area, were averaged for the four animals in each group. Treated versus control values were compared for each day using a two-sample t-test. Multiple comparisons were corrected using the method of Bonferroni.

[7] = test system: Acinetobacter baumannii (PDR) Tulane isolate; conditions: PDR) Tulane isolate
[8] = test system: luminescent P. aeruginosa (PAO1); assay: Murine wound infection model, P. aeruginosa; type: in vivo, CD1 mice; conditions: 75 μg in 20 μL water with 0.025% acetic acid, topical, every 8 h for the first 5 days; luminescence (IVIS), Days 1–3; four animals per group
Method: as §4

Structure (SMILES): CC(C)C[C@@H](NC(=O)[C@@H](CCC(N)=O)NC(=O)[C@@H](CCCNC(=N)N)NC(=O)[C@@H](CCCNC(=N)N)NC(=O)[C@@H](C)NC(=O)[C@@H](Cc1c[nH]c2ccccc12)NC(=O)[C@@H](CCCNC(=N)N)NC(=O)[C@H](N)CCCNC(=N)N)C(=O)N[C@H](C)C(=O)N[C@H](Cc1ccccc1)C(=O)N[C@H](C)C(=O)N[C@H](Cc1ccccc1)C(=O)N[C@H](CCCNC(=N)N)C(=O)N[C@H](CCCNC(=N)N)C(N)=O [D-CONGA-Q7] (H-[dR][dR][dW][dA][dR][dR][dQ][dL][dA][dF][dA][dF][dR][dR]-NH2; N-terminus assumed)
- Weight loss of mice [1]: did not demonstrate any differential weight loss
- Wound condition score [1]: no significant difference
- MIC, PA(mucoid) [2]: 4.2 µM (≈ 7.93 µg/mL)
- MIC, PA(non-mucoid) [2]: 1.1 µM (≈ 2.08 µg/mL)
- MIC, MRSA USA400 [3]: 1.5 µM (≈ 2.83 µg/mL)
- K. pneumoniae isolates susceptible (K. pneumoniae isolates): 28 of 29
- MIC, KP 6 [4]: 3.2 µM (≈ 6.05 µg/mL)
- MIC, KP 46 [4]: 2.2 µM (≈ 4.16 µg/mL)
- MIC, KP 398 [4]: 3.8 µM (≈ 7.18 µg/mL)
- MIC, KP (CRE) [4]: 2.0 µM (≈ 3.78 µg/mL)
- MIC, KP ATCC 33495 [4]: 2.4 µM (≈ 4.53 µg/mL)
- MIC, KP ST258 C2 [4]: 8.9 µM (≈ 16.8 µg/mL)
- MIC, KP ST258 C3 [4]: 14 µM (≈ 26.4 µg/mL)
- MIC, KP ST258 I2 [4]: 1.4 µM (≈ 2.64 µg/mL)
- MIC, KP ST396 [4]: 1.9 µM (≈ 3.59 µg/mL)
- K. Pneumoniae Isolate MIC, 1000527 [5]: 6.8 µM
- K. Pneumoniae Isolate MIC, 1002565 [5]: 5.1 µM
- K. Pneumoniae Isolate MIC, 1100770 [5]: 5.1 µM
- K. Pneumoniae Isolate MIC, 1100975 [5]: 3.4 µM
- K. Pneumoniae Isolate MIC, ATCC 43816 [5]: 6.8 µM
- K. Pneumoniae Isolate MIC, ATCC 700721 [5]: 6.8 µM
- K. Pneumoniae Isolate MIC, K6 [5]: 3.4 µM
- K. Pneumoniae Isolate MIC, K 6.1 [5]: 3.4 µM
- K. Pneumoniae Isolate MIC, K 6.2 [5]: 5.1 µM
- K. Pneumoniae Isolate MIC, KP 80 [5]: 3.4 µM
- K. Pneumoniae Isolate MIC, KP NIH 1 [5]: 6.8 µM
- K. Pneumoniae Isolate MIC, KP NIH 10 [5]: > 25 µM
- K. Pneumoniae Isolate MIC, KP NIH 24 [5]: 6.8 µM
- K. Pneumoniae Isolate MIC, KP NIH 27 [5]: 3.4 µM
- K. Pneumoniae Isolate MIC, KP NIH 29 [5]: 2.5 µM
- K. Pneumoniae Isolate MIC, KP NIH 30 [5]: 3.4 µM
- K. Pneumoniae Isolate MIC, KP NIH 31 [5]: 3.4 µM
- K. Pneumoniae Isolate MIC, KP NIH 32 [5]: 6.8 µM
- K. Pneumoniae Isolate MIC, KP NIH 33 [5]: 1.3 µM
- Fraction of clinical isolates sterilized at 2 μM ([6]; 2 μM): half
- Fraction of clinical isolates sterilized at 5 μM ([6]; 5 μM): 12/14
- Maximum reduction of MRSA burden (luminescent MRSA): ≥ 4 logs
- MIC, AB (PDR)Tulane [7]: 1.1 µM (≈ 2.08 µg/mL)
- Reduction of P. aeruginosa burden [8]: ~2 logs
